In patent US4820712A, “Sparsomycin (SC-RS) compounds having antitumor activity, a process for their preparation and pharmaceutical compositions containing sparsomycin (SC-RS) compounds” (priority 1986, dated 1989):
pIC50: −log10 of the molar value. Like-named read-outs stand apart in the source and are kept apart here.

Columns and labels:
Leukemia L 1210 cells = assay: in vitro clonogenic L1210 assay (inhibition of colony formation in soft agar); type: cell-based; details: Mus musculus, L1210, 72 h, read-out: ID50 (dose giving 50% inhibition of L1210 colony formation)
Experimental: The in vitro clonogenic assay was effected in Leukemia L 1210 cells in soft agar medium (0.3%). […] In the analysis, the inhibition of the L 1210 colony formation by sparsomycin and derivatives thereof is determined for various concentrations, and the dose giving 50% inhibition of the colony formation, as compared with non-treated control cells is calculated (ID50).
From a suspension culture one hundred L 1210 cells are plated out in 35 mm culture dishes (Falcon) containing 1 ml soft agar culture medium and the compound to be investigated in suitable concentrations. The soft agar culture medium consists of Dulbecco's medium supplemented with 20% horse serum, 60 μmole 2-mercaptoethanol, 20 mg/ml L-asparagine, 75 mg/ml DEAE dextran (molecular weight 2×10^6) and 0.3% bacto agar (Difco). The culture dishes were incubated at 37° C. in an atmosphere of 10% CO2 in humidified air for 3 days. After this period of continuous exposure to the medicament the colonies were counted and dose-effect curves made. From these curves, the medicament dose is calculated which causes 50% inhibition of the colony formation as compared with non-treated control cells.

[1] = target: ribosomes from S. cerevisiae Y166 (peptidyl transferase activity); assay: polyphenylalanine synthesis assay, S. cerevisiae ribosomes; type: biochemical; details: concentration giving 50% inhibition relative to control; 30° C., 30 min; read-out: ED50 polyPhe synthesis S. cerevisiae
Experimental: (§1) The peptidyl transferase activity was measured by the polyphenylalanine synthesis assay (Nirenberg and Matthei, Proc. Natl. Acad. Sci. USA 47 (1961) 1588), the fragment reaction (Monro, Methods Enzymol. 20 (1971) 472) and the puromycin reaction. In all the in vitro tests, i.e. polyPhe synthesis, fragment reaction and puromycin reaction, ribosomes from E. coli MRE600 and S. cerevisiae Y166 were used. The reaction mixture for polyphenylalanine synthesis was slightly different for E. coli and S. cerevisiae.
S. cerevisiae: The test was carried out as indicated above for E. coli. The phosphoenol pyruvate and pyruvate kinase were, however, replaced by creatine phosphate (20 mM) and creatine phosphokinase (50 μg/ml). The incubation was performed at 30° C. for 30 min and the samples were processed as described above. Under these conditions the control samples polymerized 5-14 and 3-8 molecules of phenylalanine per ribosome derived from E. coli and S. cerevisiae, respectively. Ribosomes and supernatant factors from E. coli and S. cerevisiae were prepared according to standard procedures, described by Staehelin and Maglott, Methods Enzymol. 20 (1971) 449, and by Sanchez-Madrid et al, Eur. J. Biochem. 98 (1979) 409.
(§2) The concentration of sparsomycin or an analog giving 50% inhibition of the protein synthesis relative to the control is given in ED50.

[2] = test system: ribosomes from E. coli MRE600 (peptidyl transferase activity); assay: fragment reaction, E. coli ribosomes; type: biochemical; details: 50% inhibition relative to control; 0° C., 30 min, 33% methanol; read-out: ED50 Fragment reaction E. coli
Experimental: as §1
(§3) The fragment reaction was carried out in 150 μl of 33 mM Tris-HCl pH 7.4, 270 mM KCl, 13 mM magnesium acetate containing 1 mg/ml of ribosomes, 2 mM puromycin, 1 pmol of N-acetyl-[^3 H]Leu-ACCAC(U), the required concentration of sparsomycin or its analogue and 33% methanol. The reaction was initiated by the addition of the alcohol and allowed to proceed at 0° C. for 30 min, and was then stopped by the addition of 100 μl of 0.3M sodium acetate pH 5.5 saturated with MgSO4. The samples were extracted with 1.5 ml of ethyl acetate and 1 ml of the organic phase was checked for radioactivity. The 3' terminal pentanucleotide N-acetyl-[^3 H]Leu-ACCAC(U) was prepared from N-acetyl-[^3 H]Leu-tRNA by ribonuclease T1 as described by Monro.
as §2

[3] = target: ribosomes from S. cerevisiae Y166 (peptidyl transferase activity); assay: fragment reaction, S. cerevisiae ribosomes; type: biochemical; details: 50% inhibition relative to control; 0° C., 30 min, 33% methanol; read-out: ED50 Fragment reaction S. cerevisiae
Experimental: as §1, §3, §2

P388 leukemia = assay: in vivo antitumor assay, P388 leukemia; parameters: species or system CDF1 mice
Experimental: (§4) The antitumor activity of the present compounds has also been investigated by in vivo assays. In the assays, mice were treated for nine days in succession, starting at 24 hours after the time of tumor implant.
(§5) The results are shown in tables 4, 5 and 6 and represent the number of tumor-bearing mice surviving after administration of optimal doses of the test compound, expressed as a treatment/control (T/C×100%) ratio. In the tables, information is provided with respect to the sex, dose, weight loss of treated animals compared to control animals, and the number of survivors in groups of 6 mice.

E. coli MRE600 = assay: inhibition of bacterial growth; type: cell-based
Experimental: Inhibition of bacterial growth was tested in solid as well as in liquid medium. For the test on agar plates, petri dishes containing 15 ml of LB medium (10 g/l bactotryptone, 5 g/l yeast extract and 5 g/l NaCl) were covered with 5 ml of the same medium--kept melted at 40° C.--containing 40 μl of a culture of the required bacterium at approximately an A550 of 2. After solidification, 3 mm filter disks containing 4 μl of a 10 mM solution of the antibiotic in 50EtOH/DMSO were placed on the surface of the agar and the plates were incubated at 37° C. for 24 h. For the test in liquid medium, E. coli MRE600 was grown in LB medium supplemented with 0.2% of glucose to exponential phase (A560 =0.1) and distributed in 1 ml aliquots in tubes containing the required amount of antibiotic. The tubes were incubated at 37° C. for 4 h, subsequently diluted with 3 ml of 0.1% of sodium azide to stop growth and the absorption at 550 nm was measured. The absorption of the medium without addition of antibiotic was considered as 100% growth.

[4] = test system: RC (renal cell) carcinoma; assay: in vivo antitumor assay, RC (renal cell) carcinoma; parameters: species or system CDF1 mice
Experimental: as §4, §5

[5] = test system: ribosomes from E. coli MRE600 (peptidyl transferase activity); assay: puromycin reaction, E. coli ribosomes; type: biochemical; details: 50% inhibition relative to control; read-out: ED50 Puromycin reaction E. coli
Experimental: as §1
The puromycin reaction was carried out in 25 μl of 30 mM KCl, 50 mM NH4 Cl, 30 mM Tris-HCl pH 7.8, 20 mM MgCl2, 10 pmol of ribosomes, 100 μg/ml of poly(U) and 15 pmol of N-acetyl-[^3 H]Phe-tRNA. The reaction mixture was incubated for 30 min at 37° C. and then 1 μl of 20 mM puromycin was added and incubation was followed for 5 more min. To the samples 250 μl of 0.1M sodium carbonate and 0.7 ml of ethyl acetate were added, shaken for 1 min, centrifuged to separate the phases and 0.5 ml of the upper organic phase taken for estimating the radioactivity.
as §2

[6] = male mice, ip daily x9, optimal dose mg/kg: sparsomycin 0.125, n-octyl 20.0, benzyl 2.7, 2a 1.1
[7] = male mice, ip daily x9, dose mg/kg: sparsomycin 0.125, n-octyl 20.0, benzyl 2.7, 2a 1.1
[8] = female mice, ip daily x9, dose mg/kg: 2a 3.4
[9] = female mice, ip daily x9, dose mg/kg: 2a 2.3

CSC[S@+]([O-])C[C@H](CO)NC(=O)/C=C/c1c(C)[nH]c(=O)[nH]c1=O [Sparsomycin]
pIC50 (Leukemia L 1210 cells; soft agar 0.3%, 3 days continuous exposure, vs non-treated control cells): 6.40
pIC50 [1]: 5.28
pIC50 [2]: 5.49
pIC50 [3]: 5.55
T/C (survival, treatment/control x 100%) (P388 leukemia; male mice, ip daily x9, optimal dose mg/kg: sparsomycin 0.125, n-octyl 22.5, benzyl 2.0, 2e 20.0): 88%
cures (survivors in groups of 6 mice) (P388 leukemia; male mice, ip daily x9, dose mg/kg: sparsomycin 0.125, n-octyl 22.5, benzyl 2.0, 2e 20.0): 0/6
weight loss (T - C) (P388 leukemia; mouse, in vivo, ip): -3.0 g
pIC50 (E. coli MRE600; Escherichia coli, MRE600, 4 h; read-out: Growth inhibition E. coli MRE600 ED50): 4.96
T/C (survival, treatment/control x 100%) [4, 6]: 100%
cures (survivors in groups of 6 mice) [4, 7]: 0/6
weight loss (T - C) ([4]; mouse, in vivo, ip): -1.7 g
pIC50 [5]: 7.00

CSC[S@+]([O-])C[C@H](C)NC(=O)/C=C/c1c(C)[nH]c(=O)[nH]c1=O [2a, (Sc Rs)-1-(methylthiomethyl)sulfinyl-2-[β-(6-methyl-5-uracilyl)acrylamido]-propane]
pIC50 (Leukemia L 1210 cells): 7.00
pIC50 [1]: 5.12
pIC50 [2]: 5.33
pIC50 [3]: 5.24
T/C (survival, treatment/control x 100%) (P388 leukemia; female mice, ip daily x9, optimal dose mg/kg: 2a 3.4): 170%
cures (survivors in groups of 6 mice) (P388 leukemia; [8]): 0/6
weight loss (T - C) (P388 leukemia; [8]): -2.3 g
pIC50 (E. coli MRE600; Escherichia coli, MRE600, 4 h, read-out: Growth inhibition E. coli MRE600 ED50): 5.25
T/C (survival, treatment/control x 100%) ([4]; female mice, ip daily x9, optimal dose mg/kg: 2a 2.3): 300%
cures (survivors in groups of 6 mice) [4, 9]: 0/6
weight loss (T - C) [4, 9]: -1.5 g
T/C (survival, treatment/control x 100%) [4, 6]: 304%
cures (survivors in groups of 6 mice) [4, 7]: 0/6
weight loss (T - C) [4, 7]: -0.6 g
pIC50 [5]: 6.05
